Data on 26 molecules can be found in patent US12209087B2, “AKT1 modulators” (Alterome Therapeutics, Inc., priority 2022, dated 2025).

pIC50: −log10 of the molar value. Some results are limits rather than exact numbers.

Broadly, the pIC50 is the negative decadic logarithm of the IC50, by convention in mol/L.

T1 sequence (P31749 whole entry E17K): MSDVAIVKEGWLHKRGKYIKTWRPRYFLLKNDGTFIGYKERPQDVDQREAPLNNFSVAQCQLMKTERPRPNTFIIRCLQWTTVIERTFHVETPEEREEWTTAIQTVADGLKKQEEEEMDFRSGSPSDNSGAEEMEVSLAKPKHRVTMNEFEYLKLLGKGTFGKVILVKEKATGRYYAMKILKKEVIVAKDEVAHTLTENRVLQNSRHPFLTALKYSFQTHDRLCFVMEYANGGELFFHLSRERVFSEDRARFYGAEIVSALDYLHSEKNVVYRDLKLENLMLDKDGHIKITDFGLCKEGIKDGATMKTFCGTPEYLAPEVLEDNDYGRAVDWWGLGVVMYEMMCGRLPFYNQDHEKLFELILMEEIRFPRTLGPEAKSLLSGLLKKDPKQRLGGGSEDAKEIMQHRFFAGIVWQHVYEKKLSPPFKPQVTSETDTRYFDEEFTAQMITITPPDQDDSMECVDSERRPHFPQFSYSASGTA

One test has as its target T1, full length AKT E17K (Homo sapiens, UniProt P31749, E17K).
T1 construct: host or cells: HEK-293 (ATCC CRL-1573)
In words: NanoBRET Target Engagement (TE) Assay. In kind it is cell-based. Particulars: competitive displacement of tracer in cells, read-out: AKT1 E17K IC50. An outline of the steps: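 Compound and tracer incubated 2 h before luminescence at donor 450 nm and acceptor 600 nm, with extracellular signal inhibited. EC50 by sigmoidal variable-slope regression.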
(In general: Bioluminescence resonance energy transfer reports proximity on the nanometre scale.)
Regarding `N#Cc1nccc(NC2CCN(Cc3ccc(-n4c(-c5cccnc5N)nc5ccc(-c6ccc(F)cc6C#N)nc54)cc3)CC2)n1` [Example 525, 4-((1-(4-(2-(2-Aminopyridin-3-yl)-5-(2-cyano-4-fluorophenyl)-3H-imidazo[4,5-b]pyridin-3-yl)benzyl)piperidin-4-yl)amino)pyrimidine-2-carbonitrile], the pIC50 is 7.22 to 7.82.
Still for that read-out and setting: under `N#Cc1ncnc(N2C[C@H]3CN(Cc4ccc(-n5c(-c6cccnc6N)nc6ccc(-c7ccccc7)nc65)cc4)C[C@H]3C2)n1` [Example 340, 4-((3aR,6aS)-5-(4-(2-(2-Aminopyridin-3-yl)-5-phenyl-3H-imidazo[4,5-b]pyridin-3-yl)benzyl)hexahydropyrrolo[3,4-c]pyrrol-2(1H)-yl)-1,3,5-triazine-2-carbonitrile] stands greater than 7.82.
The same measure, in the same setting: in the case of `C[C@@H]1CN(Cc2ccc(-n3c(-c4cccnc4N)nc4ccc(-c5ccccc5)nc43)cc2)C[C@H](C)N1c1nccc(C#N)n1` [Example 379, 2-((2S,6R)-4-(4-(2-(2-Aminopyridin-3-yl)-5-phenyl-3H-imidazo[4,5-b]pyridin-3-yl)benzyl)-2,6-dimethylpiperazin-1-yl)pyrimidine-4-carbonitrile] it was 5.00 to 6.22; in that of `CC(C)n1ncc(-c2ccc3nc(-c4cccnc4N)n(-c4ccc(CN5CCC(Nc6ccnc(C#N)n6)CC5)cc4)c3n2)n1` [Example 610, 4-((1-(4-(2-(2-Aminopyridin-3-yl)-5-(2-isopropyl-2H-1,2,3-triazol-4-yl)-3H-imidazo[4,5-b]pyridin-3-yl)benzyl)piperidin-4-yl)amino)pyrimidine-2-carbonitrile], greater than 7.82.
On the same count and under the same terms, in the case of `N#Cc1nccc(NC2CCN(Cc3ccc(-n4c(-c5cccnc5N)nc5ccc(N)nc54)cc3)CC2)n1` [Example 497, 4-((1-(4-(5-Amino-2-(2-aminopyridin-3-yl)-3H-imidazo[4,5-b]pyridin-3-yl)benzyl)piperidin-4-yl)amino)pyrimidine-2-carbonitrile] it was 7.22 to 7.82; in that of `N#Cc1nccc(NC2CCN(Cc3ccc(-n4c(-c5cccnc5N)nc5ccc(CF)nc54)cc3)CC2)n1` [Example 509, 4-((1-(4-(2-(2-Aminopyridin-3-yl)-5-(fluoromethyl)-3H-imidazo[4,5-b]pyridin-3-yl)benzyl)piperidin-4-yl)amino)pyrimidine-2-carbonitrile], greater than 7.82; in that of `N#Cc1nccc(NC2CCN(Cc3ccc(-n4c(-c5cccnc5N)nc5ccc(-c6ccc(F)cc6C(N)=O)nc54)cc3)CC2)n1` [Example 524, 2-(2-(2-aminopyridin-3-yl)-3-(4-((4-((2-cyanopyrimidin-4-yl)amino)piperidin-1-yl)methyl)phenyl)-3H-imidazo[4,5-b]pyridin-5-yl)-5-fluorobenzamide], 5.00 to 6.22.
Take `N#Cc1nccc(NC2CCN(Cc3ccc(-n4c(-c5cccnc5N)nc5ccc(OC(F)F)nc54)cc3)CC2)n1` [Example 535, 4-((1-(4-(2-(2-Aminopyridin-3-yl)-5-(difluoromethoxy)-3H-imidazo[4,5-b]pyridin-3-yl)benzyl)piperidin-4-yl)amino)pyrimidine-2-carbonitrile]: the negative logarithm of the IC50 (pIC50) is greater than 7.82.
The same measure, in the same setting: in the case of `N#Cc1nccc(NC2CCN(Cc3ccc(-n4c(-c5cccnc5N)nc5ccc(-c6cccc(C(F)(F)F)c6)nc54)cc3)CC2)n1` [Example 530, 4-((1-(4-(2-(2-Aminopyridin-3-yl)-5-(3-(trifluoromethyl)phenyl)-3H-imidazo[4,5-b]pyridin-3-yl)benzyl)piperidin-4-yl)amino)pyrimidine-2-carbonitrile] it was 7.22 to 7.82; in that of `COc1ccncc1-c1ccc2nc(-c3cccnc3N)n(-c3ccc(CN4CCC(Nc5ccnc(C#N)n5)CC4)cc3)c2n1` [Example 536, 4-((1-(4-(2-(2-Aminopyridin-3-yl)-5-(4-methoxypyridin-3-yl)-3H-imidazo[4,5-b]pyridin-3-yl)benzyl)piperidin-4-yl)amino)pyrimidine-2-carbonitrile], greater than 7.82; in that of `COC(=O)c1ccc2nc(-c3cccnc3N)n(-c3ccc(CN4CCC(Nc5ccnc(C#N)n5)CC4)cc3)c2n1` [Example 414, Methyl 2-(2-aminopyridin-3-yl)-3-(4-((4-((2-cyanopyrimidin-4-yl)amino)piperidin-1-yl)methyl)phenyl)-3H-imidazo[4,5-b]pyridine-5-carboxylate], greater than 7.82.
The same measure, in the same setting: in the case of `N#Cc1nccc(NN2CCN(Cc3ccc(-n4c(-c5cccnc5N)nc5ccc(-c6ccccc6)nc54)cc3)CC2)n1` [Example 426, 4-((4-(4-(2-(2-Aminopyridin-3-yl)-5-phenyl-3H-imidazo[4,5-b]pyridin-3-yl)benzyl)piperazin-1-yl)amino)pyrimidine-2-carbonitrile] it was greater than 7.82; in that of `N#Cc1nccc(NC2CCN(Cc3ccc(-n4c(-c5cccnc5N)nc5ccc(-c6ccc(CF)cn6)nc54)cc3)CC2)n1` [Example 648, 4-((1-(4-(2-(2-Aminopyridin-3-yl)-5-(5-(fluoromethyl)pyridin-2-yl)-3H-imidazo[4,5-b]pyridin-3-yl)benzyl)piperidin-4-yl)amino)pyrimidine-2-carbonitrile], greater than 7.82.

The same test, now with this note: competitive tracer displacement in living cells, read-out: AKT1 E17K IC50.
Regarding `N#Cc1nc2cc(F)cc(C(=O)NC3CCN(Cc4ccc(-n5c(-c6cccnc6N)nc6ccc(-c7ccccc7)nc65)cc4)CC3)c2s1` [Example 182, N-(1-(4-(2-(2-aminopyridin-3-yl)-5-phenyl-3H-imidazo[4,5-b]pyridin-3-yl)benzyl)piperidin-4-yl)-2-cyano-5-fluorobenzo[d]thiazole-7-carboxamide], the pIC50 was 6.22 to 7.22.
Still for that read-out and setting: under `N#Cc1nccc(NC2CCN(Cc3ccc(-n4c(-c5cccnc5N)nc5ccc(-c6ccccc6Cl)nc54)cc3)CC2)n1` [Example 305, 4-((1-(4-(2-(2-Aminopyridin-3-yl)-5-(2-chlorophenyl)-3H-imidazo[4,5-b]pyridin-3-yl)benzyl)piperidin-4-yl)amino)pyrimidine-2-carbonitrile] stands greater than 7.82.
Same read-out and setting: under `N#Cc1nccc(NC2CCN(Cc3ccc(-n4c(-c5cccnc5N)nc5ccc(-c6ccccc6F)nc54)cc3)CC2)n1` [Example 316, 4-((1-(4-(2-(2-Aminopyridin-3-yl)-5-(2-fluorophenyl)-3H-imidazo[4,5-b]pyridin-3-yl)benzyl)piperidin-4-yl)amino)pyrimidine-2-carbonitrile] stands greater than 7.82; under `N#Cc1ccc(OC2CCN(Cc3ccc(-n4c(-c5cccnc5N)nc5cc(-c6ccccc6)cnc54)cc3)CC2)nc1` [Example 3, 6-((1-(4-(2-(2-aminopyridin-3-yl)-6-phenyl-3H-imidazo[4,5-b]pyridin-3-yl)benzyl)piperidin-4-yl)oxy)nicotinonitrile], 5.00 to 6.22; under `CC(=O)Nc1cccc(-c2ccc3nc(-c4cccnc4N)n(-c4ccc(CN5CCN(c6cnc(C#N)nc6)CC5)cc4)c3n2)c1` [Example 42, N-(3-(2-(2-Aminopyridin-3-yl)-3-(4-((4-(2-cyanopyrimidin-5-yl)piperazin-1-yl)methyl)phenyl)-3H-imidazo[4,5-b]pyridin-5-yl)phenyl)acetamide], 7.22 to 7.82.
Still for that read-out and setting: in the case of `[2H]C([2H])([2H])N(c1ccnc(C#N)n1)C1CCN(Cc2ccc(-n3c(-c4cccnc4N)nc4ccc(-c5ccccc5)nc43)cc2)CC1` [Example 232, 4-((1-(4-(2-(2-Aminopyridin-3-yl)-5-phenyl-3H-imidazo[4,5-b]pyridin-3-yl)benzyl)piperidin-4-yl)(methyl-d3)amino)pyrimidine-2-carbonitrile] it was greater than 7.82.
For `N#Cc1cncnc1C(=O)NC1CCN(Cc2ccc(-n3c(-c4cccnc4N)nc4ccc(-c5ccccc5)nc43)cc2)CC1` [Example 73, N-(1-(4-(2-(2-Aminopyridin-3-yl)-5-phenyl-3H-imidazo[4,5-b]pyridin-3-yl)benzyl)piperidin-4-yl)-5-cyanopyrimidine-4-carboxamide], the negative logarithm of the IC50 (pIC50) is 7.22 to 7.82.
Still for that read-out and setting: in the case of `N#Cc1ccnc(N2CCN(Cc3ccc(-n4c(-c5cccnc5N)nc5ccc(-c6cccc(F)c6)nc54)cc3)CC2)n1` [Example 309, 2-(4-(4-(2-(2-Aminopyridin-3-yl)-5-(3-fluorophenyl)-3H-imidazo[4,5-b]pyridin-3-yl)benzyl)piperazin-1-yl)pyrimidine-4-carbonitrile] it was 7.22 to 7.82; in that of `N#Cc1cccc(NC2CCN(Cc3ccc(-n4c(-c5cccnc5N)nc5cccnc54)cc3)CC2)n1` [Example 63, 6-((1-(4-(2-(2-Aminopyridin-3-yl)-3H-imidazo[4,5-b]pyridin-3-yl)benzyl)piperidin-4-yl)amino)picolinonitrile], 5.00 to 6.22; in that of `N#Cc1ccnc(N2CCN(Cc3ccc(-n4c(-c5cccnc5N)nc5ccc(N6CCOCC6)nc54)cc3)CC2)n1` [Example 236, 2-(4-(4-(2-(2-Aminopyridin-3-yl)-5-morpholino-3H-imidazo[4,5-b]pyridin-3-yl)benzyl)piperazin-1-yl)pyrimidine-4-carbonitrile], 7.22 to 7.82.
Still for that read-out and setting: in the case of `N#Cc1cc(N2CCN(Cc3ccc(-n4c(-c5cccnc5N)nc5ccc(N6CCCNC(=O)C6)nc54)cc3)CC2)ncn1` [Example 284, 6-(4-(4-(2-(2-Aminopyridin-3-yl)-5-(3-oxo-1,4-diazepan-1-yl)-3H-imidazo[4,5-b]pyridin-3-yl)benzyl)piperazin-1-yl)pyrimidine-4-carbonitrile] it was 6.22 to 7.22.
In the case of `N#Cc1nccc(N2CCN(Cc3ccc(-n4c(-c5cccnc5N)nc5ccc(-c6cccc(=O)[nH]6)nc54)cc3)CC2)n1` [Example 238, 4-(4-(4-(2-(2-Aminopyridin-3-yl)-5-(6-oxo-1,6-dihydropyridin-2-yl)-3H-imidazo[4,5-b]pyridin-3-yl)benzyl)piperazin-1-yl)pyrimidine-2-carbonitrile], the negative logarithm of the IC50 (pIC50) was 7.22 to 7.82.
The same measure, in the same setting: under `N#Cc1nccc(NC2CCN(Cc3ccc(-n4c(-c5cccnc5N)nc5ccc(C6=CCCCC6)nc54)cc3)CC2)n1` [Example 263, 4-((1-(4-(2-(2-Aminopyridin-3-yl)-5-(cyclohex-1-en-1-yl)-3H-imidazo[4,5-b]pyridin-3-yl)benzyl)piperidin-4-yl)amino)pyrimidine-2-carbonitrile] stands 7.22 to 7.82.
